Experimental findings from patent US20090215893A1, “Parakeratosis inhibitor, pore-shrinking agent,or rough skin preventing/ameliorating agent, and external composition for skin” (Shiseido Company Ltd, priority 2005, published 2009) are described below.

Series [1] deals with back of a hairless mouse (HR-1), 10 mass % oleic acid applied. Kind of series: Parakeratosis-inhibiting effect tests: oleic acid applied to hairless mouse back, macroscopic rough skin evaluation and parakeratosis value. It counts as in vivo. Particulars: for Macroscopic evaluation (average of four animals) / Parakeratosis value (average of four animals): sample 3 mass %; for Macroscopic evaluation (average of four animals): 100 μL after oleic acid, three days, rough skin score 0.0 (no redness) to 2.0 (control); for Parakeratosis value (average of four animals): tape-stripped stratum corneum, hematoxylin, range 1.0 to 3.0, higher = parakeratosis advanced, control 2.0; for parakeratosis value / parakeratosis-inhibiting effect / rough skin preventing effect, based on stratum corneum peeling and redness: summary of Table 1, concentrations as in Table 1. In outline: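 Hairless mouse backs given 100 μL of 10 mass % oleic acid in ethanol, then 100 μL of sample (mainly 3 mass % in 30% ethanol, pH 7.0 to 7.5), daily for three days. Rough skin scored 0.0 to 2.0 in 0.25 steps against control. Tape-stripped, hematoxylin-stained stratum corneum rated 1.0 to 3.0 for parakeratosis.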

The subject of series [2] is pores of the cheeks of healthy human males. Kind of series: Human pore-shrinking effect (replica assessment of cheek pores). It counts as in vivo. Particulars: for Replica assessment (average of n = 5): sample 3 mass %, twice a day for one month, pore size rating 1-13, after application minus before application, control 0.3; for pore-shrinking effect: summary of Table 2, concentrations as in Table 2.

Series [3] has as its system back of hairless mice (HR-1), 10 mass % oleic acid applied. Kind of series: Inhibiting effect against rough skin induced by oleic acid application (transepidermal water loss). It counts as in vivo. The arrangement: ΔTEWL value: unit not given here. Conditions: for ΔTEWL value: sample 3 mass %, three days, average of four animals, rough skin worse as value increases, control 12.0; for ΔTEWL value compared with the control aqueous solution / rough skin preventing/ameliorating effect: summary of Table 3, concentrations as in Table 3. In outline:
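HR-1 hairless mice (four per group) received 100 μL 10 mass % oleic acid in ethanol on the back, then 100 μL sample solution, daily for three days. TEWL measured next day with a TEWA Meter; ΔTEWL versus before application, averaged over four animals, compared with aqueous control.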

Series [4] has as its system cheek of a panel of 20 women. Put plainly: Sensory irritation tests. Particulars: for Evaluation (sensory irritation, class of average rating): sample 3 mass %, 1 mL on cheek, evaluated for ten minutes, 20 women; for sensory irritation: summary of Table 4, β-alanine at 3%. It counts as in vivo, human. In outline:
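A cotton swab applied 1 mL of control or sample aqueous solution to opposite cheeks of 20 women. Irritation was scored 0–3 every 30 s for 10 min. Average ratings were graded A (<0.2), B (0.2–<1.0), C (1.0–<2.0) or D (≥2.0).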

Take `CCN[C@@H](CO)C(=O)O` [N-ethyl-L-serine]: in series [1], the “Macroscopic evaluation (average of four animals)” value (from here on “Macroscopic evaluation”) came to 1.4; the “Parakeratosis value (average of four animals)” value was found to be 1.4; the “parakeratosis value / parakeratosis-inhibiting effect” value is “reduced”; the “rough skin preventing effect, based on stratum corneum peeling and redness” value (“rough skin preventing effect, based” for short) is “seen”. Further, in series [2], the “Replica assessment (average of n = 5)” value is given as −1.2 and the “pore-shrinking effect” value is given as “seen”. Besides, in series [3], the ΔTEWL value is on record as 7.7 and the “ΔTEWL value compared with the control aqueous solution / rough skin preventing/ameliorating effect” value is listed as “significantly lower”. In series [4], the “Evaluation (sensory irritation, class of average rating)” value is recorded as “A (average rating of less than 0.2)” and the “sensory irritation” value is reported as “no problems”.
`CN[C@H](C)C(=O)O` [N-methyl-D-alanine]: in series [1], the “Macroscopic evaluation” value amounted to 1.2; the “Parakeratosis value (average of four animals)” value amounted to 1.3; the “parakeratosis value / parakeratosis-inhibiting effect” value is “reduced”; the “rough skin preventing effect, based” value is reported as “seen”. In series [2], the “Replica assessment (average of n = 5)” value is listed as −0.7 and the “pore-shrinking effect” value is on record as “seen”. Further, in series [3], the ΔTEWL value came to 8.2 and the “ΔTEWL value compared with the control aqueous solution / rough skin preventing/ameliorating effect” value is “significantly lower”. In series [4], the “Evaluation (sensory irritation, class of average rating)” value is on record as “A (average rating of less than 0.2)” and the “sensory irritation” value was “no problems”.
On to `CN[C@H](CO)C(=O)O` [N-methyl-D-serine], for which, in series [1], the “Macroscopic evaluation” value is recorded as 1.4; the “Parakeratosis value (average of four animals)” value stood at 1.5; the “parakeratosis value / parakeratosis-inhibiting effect” value is “reduced”; the “rough skin preventing effect, based” value was “seen”. In series [2], the “Replica assessment (average of n = 5)” value was −1.5 and the “pore-shrinking effect” value is “seen”. Moreover, in series [3], the ΔTEWL value is listed as 8.0 and the “ΔTEWL value compared with the control aqueous solution / rough skin preventing/ameliorating effect” value was “significantly lower”. Moreover, in series [4], the “Evaluation (sensory irritation, class of average rating)” value is listed as “A (average rating of less than 0.2)” and the “sensory irritation” value is given as “no problems”.
For `CN[C@@H](C)C(=O)O` [N-methyl-L-alanine], in series [1], the “Macroscopic evaluation” value came to 1.4; the “Parakeratosis value (average of four animals)” value is reported as 1.4; the “parakeratosis value / parakeratosis-inhibiting effect” value was “reduced”; the “rough skin preventing effect, based” value is given as “seen”. In series [2], the “Replica assessment (average of n = 5)” value is given as −0.8 and the “pore-shrinking effect” value was “seen”. In series [3], the ΔTEWL value is reported as 8.3 and the “ΔTEWL value compared with the control aqueous solution / rough skin preventing/ameliorating effect” value is “significantly lower”. In addition, in series [4], the “Evaluation (sensory irritation, class of average rating)” value was “A (average rating of less than 0.2)” and the “sensory irritation” value was “no problems”.
For `CN[C@@H](CO)C(=O)O` [N-methyl-L-serine], in series [1], the “Macroscopic evaluation” value is listed as 1.3; the “Parakeratosis value (average of four animals)” value is listed as 1.2; the “parakeratosis value / parakeratosis-inhibiting effect” value is listed as “reduced”; the “rough skin preventing effect, based” value is reported as “seen”. Moreover, in series [2], the “Replica assessment (average of n = 5)” value is −1.2 and the “pore-shrinking effect” value is “seen”. Also, in series [3], the ΔTEWL value came out at 7.9 and the “ΔTEWL value compared with the control aqueous solution / rough skin preventing/ameliorating effect” value is recorded as “significantly lower”. For the same compound, in series [4], the “Evaluation (sensory irritation, class of average rating)” value is given as “A (average rating of less than 0.2)” and the “sensory irritation” value is listed as “no problems”.
